Results taken from PubChem BioAssay AID330 (DTP/NCI, 2004).
Where “and” joins values, the source holds several entries; their conditions need not be identical. Equal entries are not always repeated. Toxic doses and inconclusive results are not listed. How the source made its calls: active means survival T/C of 150% or more; inactive means T/C below 125% in these data.

System: P388 leukemia ip, CD2F1 mice, survival T/C
Test: NCI In Vivo Anticancer Drug Screen. Data for tumor model P388 Leukemia (intraperitoneal) in CD2F1 (CDF1) mice
Conditions: endpoint: median survival time, higher = longer survival
Summary of the method: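 Mice carrying the transplanted tumor received test compound or vehicle. Survival was recorded in each group, and the value is the treated-group measurement divided by that of the vehicle-treated control group.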

[1] = dose: 50.0 mg/kg/injection, schedule: Q01DX009 (ip), vehicle: suspension in saline
[2] = dose: 100.0 mg/kg/injection, schedule: Q01DX009 (ip), vehicle: suspension in saline
[3] = dose: 50.0 mg/kg/injection, schedule: Q01DX009 (ip), vehicle: saline with Tween-80
[4] = dose: 100.0 mg/kg/injection, schedule: Q01DX009 (ip), vehicle: saline with Tween-80
[5] = dose: 100.0 mg/kg/injection, schedule: Q01DX009 (ip), vehicle: saline
[6] = dose: 200.0 mg/kg/injection, schedule: Q01DX009 (ip), vehicle: saline with Tween-80
[7] = dose: 200.0 mg/kg/injection, schedule: Q01DX009 (ip), vehicle: saline
[8] = dose: 400.0 mg/kg/injection, schedule: Q01DX009 (ip), vehicle: saline with Tween-80
[9] = dose: 50.0 mg/kg/injection, schedule: Q01DX005 (ip), vehicle: saline with Tween-80
[10] = dose: 100.0 mg/kg/injection, schedule: Q01DX005 (ip), vehicle: saline with Tween-80
[11] = dose: 200.0 mg/kg/injection, schedule: Q01DX005 (ip), vehicle: saline with Tween-80
[12] = dose: 25.0 mg/kg/injection, schedule: Q01DX005 (ip), vehicle: saline with Tween-80
[13] = dose: 12.5 mg/kg/injection, schedule: Q01DX009 (ip), vehicle: saline with Tween-80
[14] = dose: 25.0 mg/kg/injection, schedule: Q01DX009 (ip), vehicle: saline with Tween-80
[15] = dose: 100.0 mg/kg/injection, schedule: Q04DX002 (ip), vehicle: saline with Tween-80
[16] = dose: 200.0 mg/kg/injection, schedule: Q04DX002 (ip), vehicle: saline with Tween-80

Measured: T/C

c1cc2ccc1CSCCCSCc1ccc(cc1)CSCCCSC2
inactive: dose: 25.0 mg/kg/injection, schedule: Q01DX009 (ip), vehicle: suspension in saline 100 % of control | [1] 92 % of control | [2] 98 % of control

O=CN(O)CC(=O)O
inactive: [3] 95 % of control | dose: 50.0 mg/kg/injection, schedule: Q04DX003 (ip), vehicle: saline sonified 104 % of control | [4] 104 % of control | [5] 100 % of control | dose: 100.0 mg/kg/injection, schedule: Q04DX003 (ip), vehicle: saline sonified 100 % of control | dose: 100.0 mg/kg/injection, schedule: Q04DX003 (ip), vehicle: saline 100 % of control | [6] 95 % of control | [7] 109 % of control | dose: 200.0 mg/kg/injection, schedule: Q04DX003 (ip), vehicle: saline sonified 100 % of control | dose: 200.0 mg/kg/injection, schedule: Q04DX003 (ip), vehicle: saline 108 % of control | [8] 100 % of control | dose: 400.0 mg/kg/injection, schedule: Q01DX009 (ip), vehicle: saline 100 % of control | dose: 400.0 mg/kg/injection, schedule: Q04DX003 (ip), vehicle: saline sonified 100 % of control | dose: 400.0 mg/kg/injection, schedule: Q04DX003 (ip), vehicle: saline 91 % of control

CC(C)CNN(CC(C)C)C(N)=O
inactive: [4] 102 % of control | [6] 105 % of control

CN=C1NS(=O)(=O)c2ccccc21
inactive: [9] 93 % of control | [10] 108 % of control | [11] 97 % of control

C=CCOc1cc2c(cc1Cc1cc(OC)c(OC)c(OC)c1)OCO2
inactive: dose: 60.0 mg/kg/injection, schedule: Q01DX005 (ip), vehicle: saline 100 % of control | dose: 120.0 mg/kg/injection, schedule: Q01DX005 (ip), vehicle: saline 99 % of control

CCCCOC(=O)[C@@H]1O[C@H]2OC=C[C@H]21
inactive: dose: 6.25 mg/kg/injection, schedule: Q01DX005 (ip), vehicle: saline with Tween-80 100 % of control | dose: 12.5 mg/kg/injection, schedule: Q01DX005 (ip), vehicle: saline with Tween-80 106 % of control

CNC(=S)N=Nc1c(O)[nH]c2ccccc12
inactive: dose: 50.0 mg/kg/injection, schedule: Q01DX009 (ip), vehicle: saline 91 % of control | [5] 99 % of control | [7] 91 % of control

CC(C)(C)C1CCN(Cc2ccccc2)CC1
inactive: [12] 103 % of control | [9] 103 % of control | [10] 100 % of control

CC(C#N)CCCC#N (stereo not drawn)
inactive: [13] 100 % of control | [14] 100 % of control | [3] 100 % of control

COC(=O)/C=C/N(Cc1ccccc1)Cc1ccccc1
inactive: [4] 100 % of control | dose: 100.0 mg/kg/injection, schedule: Q04DX003 (ip), vehicle: saline with Tween-80 95 % of control | [6] 100 % of control | dose: 200.0 mg/kg/injection, schedule: Q04DX003 (ip), vehicle: saline with Tween-80 95 % of control | [8] 100 % of control | dose: 400.0 mg/kg/injection, schedule: Q04DX003 (ip), vehicle: saline with Tween-80 95 % of control

COc1cccc2c1C(=O)c1c(O)c3c(c(O)c1C2=O)CC(O)(C(=O)CO)CC3OC1CC(NC(=O)C(F)(F)F)C(OC2CC(N)C(O)C(C)O2)C(C)O1 (stereo not drawn)
inactive: dose: 3.13 mg/kg/injection, schedule: Q04DX003 (ip), vehicle: water 109 % of control | dose: 12.5 mg/kg/injection, schedule: Q04DX003 (ip), vehicle: water 119 % of control | dose: 25.0 mg/kg/injection, schedule: Q04DX003 (ip), vehicle: water 113 % of control | dose: 50.0 mg/kg/injection, schedule: Q04DX003 (ip), vehicle: water 117 % of control

Cc1ccc(NC(=S)NC2C(=O)Nc3ccccc32)cc1 (stereo not drawn)
inactive: dose: 100.0 mg/kg/injection, schedule: Q01DX001 (ip), vehicle: saline with Tween-80 92 % of control | dose: 200.0 mg/kg/injection, schedule: Q01DX001 (ip), vehicle: saline with Tween-80 93 % of control | dose: 400.0 mg/kg/injection, schedule: Q01DX001 (ip), vehicle: saline with Tween-80 87 % of control

CC1CCC2CC(=O)NC(=O)CC12 (stereo not drawn)
inactive: dose: 6.25 mg/kg/injection, schedule: Q04DX003 (ip), vehicle: saline with Tween-80 100 % of control | dose: 12.5 mg/kg/injection, schedule: Q04DX003 (ip), vehicle: saline with Tween-80 100 % of control | dose: 25.0 mg/kg/injection, schedule: Q04DX003 (ip), vehicle: saline with Tween-80 104 % of control

O=C(CCl)Nc1nccs1
inactive: [13] 111 % of control | [14] 112 % of control | [3] 103 % of control | [4] 116 % of control

COc1ccc(/C=N/NC(=O)CNC(=O)c2ccc(Cl)c(Cl)c2)cc1
inactive: dose: 3.13 mg/kg/injection, schedule: Q01DX009 (ip), vehicle: saline with Tween-80 100 % of control | dose: 6.25 mg/kg/injection, schedule: Q01DX009 (ip), vehicle: saline with Tween-80 108 % of control | [13] 107 % of control

CSc1ccccc1C(=O)O
inactive: [15] 104 % of control | [16] 101 % of control | dose: 400.0 mg/kg/injection, schedule: Q04DX002 (ip), vehicle: saline with Tween-80 102 % of control

O=[N+]([O-])c1ccc(/C=C/Br)o1
inactive: [1] 88 % of control | [2] 95 % of control | dose: 200.0 mg/kg/injection, schedule: Q01DX009 (ip), vehicle: suspension in saline 103 % of control

CS(=O)(=O)c1nc(N)c2nnn(C3OC(CO)C(O)C3O)c2n1 (stereo not drawn)
inactive: dose: 12.5 mg/kg/injection, schedule: Q01DX001 (ip), vehicle: saline 109 % of control | dose: 25.0 mg/kg/injection, schedule: Q01DX001 (ip), vehicle: saline 100 % of control | dose: 50.0 mg/kg/injection, schedule: Q01DX001 (ip), vehicle: saline 118 % of control | dose: 100.0 mg/kg/injection, schedule: Q01DX001 (ip), vehicle: saline 109 % of control

Cn1c(/C=C/CO)c(CO)c2c1C(=O)C=C(N1CC1)C2=O
inactive: dose: 1.5 mg/kg/injection, schedule: Q01DX005 (ip), vehicle: saline 106 % of control | dose: 3.0 mg/kg/injection, schedule: Q01DX005 (ip), vehicle: saline 94 % of control

CCCCOc1ccc(-c2cnc(-c3ccc(-c4ncc(-c5ccc(OCCCC)cc5)o4)cc3)o2)cc1
inactive: dose: 3.0 mg/kg/injection, schedule: Q01DX005 (ip), vehicle: saline with Tween-80 91 % of control | dose: 6.0 mg/kg/injection, schedule: Q01DX005 (ip), vehicle: saline with Tween-80 88 % of control | [12] 89 % of control | [9] 87 % of control and 94 % of control | [10] 99 % of control | [11] 108 % of control

CCCCCCN(CCCCCC)CC(O)c1ccc2c3c(cccc13)CC2 (stereo not drawn)
inactive: dose: 50.0 mg/kg/injection, schedule: Q01DX009 (ip), vehicle: Klucel (hydroxypropylcellulose) (HPC) 106 % of control | dose: 100.0 mg/kg/injection, schedule: Q01DX009 (ip), vehicle: Klucel (hydroxypropylcellulose) (HPC) 102 % of control | dose: 200.0 mg/kg/injection, schedule: Q01DX009 (ip), vehicle: Klucel (hydroxypropylcellulose) (HPC) 100 % of control

CC1=C2[C@H]3OC(=O)[C@@H](C)[C@@H]3CC[C@@]2(C)C=C/C1=N\O
inactive: [9] 103 % of control | [10] 95 % of control | [11] 96 % of control

CC(C)C1CCC(C)(Cl)C2CCC(C)(Cl)CC12 (stereo not drawn)
inactive: dose: 100.0 mg/kg/injection, schedule: Q04DX003 (ip), vehicle: other 90 % of control | dose: 200.0 mg/kg/injection, schedule: Q04DX003 (ip), vehicle: other 100 % of control | dose: 400.0 mg/kg/injection, schedule: Q04DX003 (ip), vehicle: other 100 % of control

c1ccc2c(c1)C(=NCCCN1CCCCCC1)c1cccn1-2
inactive: [9] 100 % of control | [10] 100 % of control | [11] 100 % of control

CNC1C(O)C(NC)C2OC3(O)C(=O)CC(C)OC3OC2C1O (stereo not drawn)
inactive: dose: 50.0 mg/kg/injection, schedule: Q04DX002 (ip), vehicle: saline with Tween-80 101 % of control | dose: 100.0 mg/kg/injection, schedule: Q01DX005 (ip), vehicle: saline 101 % of control | [15] 101 % of control | dose: 200.0 mg/kg/injection, schedule: Q01DX005 (ip), vehicle: saline 100 % of control | [16] 98 % of control
